Laboratory results: patent publication US9776972B2, “Pyrazole derivatives as arginine methyltransferase inhibitors and uses thereof” (priority 2013, dated 2017)

Columns and labels:
human PRMT6 = target: T1, human PRMT6 (Homo sapiens, UniProt Q96LA8); test: PRMT6 Biochemical Assay (3H-SAM Flashplate, peptide substrate); settings: Biochemical IC50 PRMT6, single experiment or average of multiple experiments
T1 construct: Flag-PRMT6-His; made in house; host or cells: HEK 293F cells (BacMam baculovirus)
Procedure, shortened: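 Methylation of a biotin-tagged H4 (36-50) peptide by ³H-SAM was quantified by streptavidin Flashplate capture and scintillation counts (dpm/cpm). Before SAM/peptide addition, Flag-PRMT6-His was preincubated with compound for 30 min at room temperature in Bicine buffer, pH 7.6.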

human PRMT8 = human PRMT8 (Homo sapiens, UniProt Q9NR22); test: PRMT8 Biochemical Assay (3H-SAM Flashplate, peptide substrate); settings: single experiment or average of multiple experiments
Procedure, shortened: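 Methylation of a biotin-tagged histone H4 peptide (residues 31-45) by recombinant PRMT8 was measured as 3H transfer from 3H-SAM, after a 30 min room-temperature compound preincubation in Bicine buffer pH 7.6. Reactions were quenched with unlabelled SAM to 400 uM final, then bound counts were read by streptavidin Flashplate. IC50 came from a Hill fit of % inhibition relative to max and SAH min controls.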

human PRMT8, sequence (Q9NR22 whole entry, the tested form may be a part): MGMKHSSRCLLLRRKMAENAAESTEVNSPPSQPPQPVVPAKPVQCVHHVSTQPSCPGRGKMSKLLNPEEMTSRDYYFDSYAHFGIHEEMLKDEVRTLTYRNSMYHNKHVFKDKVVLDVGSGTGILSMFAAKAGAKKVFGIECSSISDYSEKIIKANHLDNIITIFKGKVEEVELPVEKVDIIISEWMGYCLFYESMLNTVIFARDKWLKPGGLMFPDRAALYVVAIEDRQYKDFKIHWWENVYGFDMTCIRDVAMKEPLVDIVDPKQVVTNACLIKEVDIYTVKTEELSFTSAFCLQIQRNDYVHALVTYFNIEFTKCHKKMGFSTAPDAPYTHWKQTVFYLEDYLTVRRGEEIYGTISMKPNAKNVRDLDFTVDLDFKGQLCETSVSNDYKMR
T1 sequence (Q96LA8 with tags, fused parts or gaps): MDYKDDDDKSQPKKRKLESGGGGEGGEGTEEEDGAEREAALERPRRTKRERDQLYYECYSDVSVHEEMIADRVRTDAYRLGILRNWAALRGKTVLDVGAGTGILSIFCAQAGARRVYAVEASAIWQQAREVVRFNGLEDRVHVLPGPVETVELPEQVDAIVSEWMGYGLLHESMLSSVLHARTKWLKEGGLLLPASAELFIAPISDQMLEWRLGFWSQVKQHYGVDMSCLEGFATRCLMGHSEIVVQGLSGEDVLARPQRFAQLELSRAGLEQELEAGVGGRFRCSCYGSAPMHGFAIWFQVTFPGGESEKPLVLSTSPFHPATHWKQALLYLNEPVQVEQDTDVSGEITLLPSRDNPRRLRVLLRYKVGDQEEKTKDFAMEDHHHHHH

| IC50 (human PRMT6) [nM] | IC50 (human PRMT8) [nM] | SMILES |
| --- | --- | --- |
| 526 | – | CNCCN(C)Cc1cn(C(C)C)nc1-c1ccc(F)cc1 [Compound 15] |
| 13.6 | 483 | CNCCN(C)Cc1cn[nH]c1-c1cc(F)cc(F)c1 [Compound 18] |
| 60 | 167 | CN(CCN)Cc1n[nH]cc1-c1ccc(C2CCOCC2)cc1 [Compound 145] |
| 12.5 | 1120 | COc1ccc(-c2n[nH]cc2CN(C)CCN)c(Cl)c1 [Compound 146] |
| 68.2 | 809 | CN(CCN)Cc1c[nH]nc1-c1ccc(C(F)(F)F)cc1F [Compound 148] |
| 62.5 | 910 | CN(CCN)Cc1c[nH]nc1-c1cccc(N(C)C)c1 [Compound 149] |
| 112 | 1370 | COc1cc(F)ccc1-c1n[nH]cc1CN(C)CCN [Compound 151] |
| 11.6 | 132 | COc1ccc(-c2n[nH]cc2CN(C)CCN)cc1 [Compound 153] |
| 375 | 6170 | COc1ccc(-c2n[nH]cc2CN(C)CCN)c(C(F)(F)F)c1 [Compound 154] |
| 115 | – | Cc1ccc(C#N)cc1-c1n[nH]cc1CN(C)CCN [Compound 158] |
| 7.22 | – | CN(CCN)Cc1c[nH]nc1-c1ccc(OC2CCOCC2)cc1 [Compound 178] |
| 13.4 | – | COCCCOc1ccc(-c2n[nH]cc2CN(C)CCN)cc1 [Compound 179] |
| 322 | – | CCN(C)C(=O)c1cccc(-c2n[nH]cc2CN(C)CCN)c1 [Compound 198] |
| 124 | – | CNCCN(C)Cc1cn(C2CCCC2)nc1-c1ccc(OC(C)C)cc1 [Compound 214] |

More lines, now with the values behind:

| SMILES | IC50 (human PRMT6) [nM] | IC50 (human PRMT8) [nM] |
| --- | --- | --- |
| CNCCN(C)Cc1cn(C2CC2)nc1-c1ccc(F)cc1 [Compound 13] | 271 | – |
| CNCCN(C)Cc1cnn(C2CC2)c1-c1ccc(F)cc1 [Compound 14] | 27.7 | 1380 |
| CNCCN(C)Cc1cnn(C(C)C)c1-c1ccc(F)cc1 [Compound 16] | 57.9 | – |
| CNCCN(C)Cc1cn[nH]c1-c1ccc(C#N)cc1 [Compound 17] | 12.8 | 89.1 |
| CN(CCN)Cc1c[nH]nc1-c1cc(C#N)ccc1Cl [Compound 147] | 53.6 | – |
| CCOC(=O)c1cccc(-c2n[nH]cc2CN(C)CCN)c1 [Compound 150] | 29 | 566 |
| Cc1cc(F)ccc1-c1n[nH]cc1CN(C)CCN [Compound 152] | 22.7 | 983 |
| COc1ccc(-c2n[nH]cc2CN(C)CCN)c(C)c1 [Compound 155] | 22.3 | 977 |
| CN(CCN)Cc1c[nH]nc1-c1cc(Cl)ccc1F [Compound 156] | 43.1 | 1710 |
| COc1ccc(Cl)cc1-c1n[nH]cc1CN(C)CCN [Compound 157] | 504 | 5820 |
| Cc1ccc(F)cc1-c1n[nH]cc1CN(C)CCN [Compound 159] | 27.3 | 879 |
| COc1ccc(F)cc1-c1n[nH]cc1CN(C)CCN [Compound 160] | 191 | 3010 |
| CNCCN(C)Cc1c[nH]nc1-c1ccc(OC2CCOCC2)cc1 [Compound 175] | 12.5 | – |
| CC(C)Oc1ccc(-c2nn(C)cc2CN(C)CCN)cc1 [Compound 176] | 67.3 | – |
| CC(C)Oc1ccc(-c2c(CN(C)CCN)cnn2C)cc1 [Compound 177] | 34.2 | – |
| CNCCN(C)Cc1c[nH]nc1-c1ccc(OC(C)C)c(F)c1 [Compound 181] | 17.3 | – |
| CCn1cc(CN(C)CCNC)c(-c2ccc(OC(C)C)cc2)n1 [Compound 213] | 82.1 | – |
| CNCCN(C)Cc1cn(C2CCOC2)nc1-c1ccc(OC(C)C)cc1 (centres unmarked) [Compound 215] | 323 | – |
| CNCCN(C)Cc1cnn(C2CCOC2)c1-c1ccc(OC(C)C)cc1 (centres unmarked) [Compound 216] | 27.7 | – |
| CNCCN(C)Cc1cn(Cc2ccccc2)nc1-c1ccc(OC(C)C)cc1 [Compound 217] | 42.1 | – |
| C=CCn1cc(CN(C)CCNC)c(-c2ccc(OC(C)C)cc2)n1 [Compound 218] | 132 | – |
| C=CCn1ncc(CN(C)CCNC)c1-c1ccc(OC(C)C)cc1 [Compound 219] | 30.8 | – |
